Consider ten molecules from patent US20240368203A1, “DEGRADATION OF (EGFR) BY CONJUGATION OF EGFR INHIBITORS WITH E3 LIGASE LIGAND AND METHODS OF USE” (BeiGene, Ltd., priority 2022, published 2024).

The test system of one experiment is EGFR-Del19/T790M/C797S. Nature of the experiment: EGFR degradation HTRF assay in H1975-clone #28 cells. It counts as cell-based. To be noted: H1975-clone #28 (Del19/T790M/C797S) cells, 16 h treatment; for DC50: IC50 (DC50), read-out: DC50(nM) H1975 # 28 DTC; for Dmax (%) H1975 # 28 DTC: maximum percentage of inhibition (degradation). The gist of the method:
(§1)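 H1975 clones with endogenous EGFR knocked out, homozygously expressing lentiviral L858R/T790M/C797S (#25) or Del19/T790M/C797S (#28), treated 16 h at 37° C with 8 doses from 10 uM, 5-fold, in 0.2% DMSO. EGFR in lysates measured by HTRF overnight; DC50 from four-parameter fit of % degradation.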
Background: Time-resolved FRET reads energy transfer from a long-lived donor to a nearby acceptor.

For a further experiment, the target named is T1, EGFR-L858R/T790M/C797S (Homo sapiens, UniProt P00533, C797S/L858R/T790M).
T1 construct: expressed in transfected cells; host or cells: H1975-clone #25 (lentiviral over-expression, endogenous EGFR knocked out)
T1 sequence (P00533 25-1210 T790M/C797S/L858R): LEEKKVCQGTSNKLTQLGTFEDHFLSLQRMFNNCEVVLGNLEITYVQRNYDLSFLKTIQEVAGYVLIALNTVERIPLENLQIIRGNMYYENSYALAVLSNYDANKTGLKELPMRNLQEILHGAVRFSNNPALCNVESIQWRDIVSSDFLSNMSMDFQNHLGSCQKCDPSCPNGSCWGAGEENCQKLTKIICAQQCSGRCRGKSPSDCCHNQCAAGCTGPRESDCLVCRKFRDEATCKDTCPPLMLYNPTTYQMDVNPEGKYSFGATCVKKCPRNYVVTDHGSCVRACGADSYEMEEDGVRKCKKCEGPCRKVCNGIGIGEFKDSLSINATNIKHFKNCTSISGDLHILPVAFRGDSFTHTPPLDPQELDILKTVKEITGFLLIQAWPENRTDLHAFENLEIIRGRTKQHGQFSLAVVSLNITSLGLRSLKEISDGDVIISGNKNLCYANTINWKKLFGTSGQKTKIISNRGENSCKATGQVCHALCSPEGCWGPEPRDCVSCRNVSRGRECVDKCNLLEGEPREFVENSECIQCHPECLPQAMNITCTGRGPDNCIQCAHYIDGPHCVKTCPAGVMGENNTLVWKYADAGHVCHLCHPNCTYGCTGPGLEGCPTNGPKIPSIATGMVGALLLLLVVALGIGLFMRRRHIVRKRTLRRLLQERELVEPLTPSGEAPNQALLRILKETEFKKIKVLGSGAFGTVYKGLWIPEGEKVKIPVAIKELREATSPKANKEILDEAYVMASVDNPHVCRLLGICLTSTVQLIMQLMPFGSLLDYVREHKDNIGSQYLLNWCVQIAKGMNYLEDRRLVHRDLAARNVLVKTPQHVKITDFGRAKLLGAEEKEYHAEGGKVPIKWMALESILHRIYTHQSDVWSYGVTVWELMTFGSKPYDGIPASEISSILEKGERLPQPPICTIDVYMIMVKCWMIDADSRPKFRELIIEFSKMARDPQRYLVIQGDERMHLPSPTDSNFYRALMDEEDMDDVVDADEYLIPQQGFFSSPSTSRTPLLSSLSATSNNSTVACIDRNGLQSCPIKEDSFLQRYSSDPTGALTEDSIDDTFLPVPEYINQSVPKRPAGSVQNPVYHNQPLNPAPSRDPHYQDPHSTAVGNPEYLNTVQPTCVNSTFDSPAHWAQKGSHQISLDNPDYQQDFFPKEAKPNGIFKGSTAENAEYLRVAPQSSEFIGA
Description: EGFR degradation HTRF assay in H1975-clone #25 cells. It is filed as cell-based. Conditions: 16 h treatment; for DC50: H1975-clone #25 (L858R/T790M/C797S) cells, IC50 (DC50), read-out: DC50(nM) H1975 # 25-LTC; for Dmax: NCI-H1975, H1975-clone #25 (L858R/T790M/C797S) cells, maximum percentage of inhibition (degradation), read-out: Dmax (%) H1975 # 25-LTC. An outline of the steps:
as §1

Regarding `CCOc1cc(N2CCC(N3CCC4(CC3)CN(c3cc(F)c([C@H]5CCC(=O)NC5=O)c(F)c3)C4)CC2)c(CC)cc1Nc1ncc(Cl)c(Nc2ccc3nc(C)c(F)cc3c2P(C)(C)=O)n1` [Example 57, (R)-3-(4-(7-(1-(4-((5-chloro-4-((5-(dimethylphosphoryl)-3-fluoro-2-methylquinolin-6-yl)amino)pyrimidin-2-yl)amino)-5-ethoxy-2-ethylphenyl)piperidin-4-yl)-2,7-diazaspiro[3.5]nonan-2-yl)-2,6-difluorophenyl)piperidine-2,6-dione], in the experiment with EGFR-Del19/T790M/C797S, the DC50 was determined as 4.5 nM and the “Dmax (%) H1975 # 28 DTC” value worked out at 88%. Besides, on EGFR-L858R/T790M/C797S, the DC50 stood at 2.7 nM and the Dmax is 90%.

With `CCc1ccc2c(P(C)(C)=O)c(Nc3nc(Nc4cc(CC)c(N5CCC(N6CC7(CCN(c8cc(F)c([C@H]9CCC(=O)NC9=O)c(F)c8)CC7)C6)CC5)cc4OC)ncc3Br)ccc2n1` [Example 58, (R)-3-(4-(2-(1-(4-((5-bromo-4-((5-(dimethylphosphoryl)-2-ethylquinolin-6-yl)amino)pyrimidin-2-yl)amino)-2-ethyl-5-methoxyphenyl)piperidin-4-yl)-2,7-diazaspiro[3.5]nonan-7-yl)-2,6-difluorophenyl)piperidine-2,6-dione], in the experiment with EGFR-Del19/T790M/C797S, the DC50 amounted to 1.6 nM and the “Dmax (%) H1975 # 28 DTC” value came to 91%. Further, at EGFR-L858R/T790M/C797S, the DC50 amounted to 3.1 nM and the maximal degradation (Dmax) was 91%.

Consider `CCOc1cc(N2CCC(N3CC4(CCN(c5cc(F)c([C@H]6CCC(=O)NC6=O)c(F)c5)CC4)C3)CC2)c(CC)cc1Nc1ncc(Cl)c(Nc2ccc3nc(C)c(F)cc3c2P(C)(C)=O)n1` [Example 59, (R)-3-(4-(2-(1-(4-((5-chloro-4-((5-(dimethylphosphoryl)-3-fluoro-2-methylquinolin-6-yl)amino)pyrimidin-2-yl)amino)-5-ethoxy-2-ethylphenyl)piperidin-4-yl)-2,7-diazaspiro[3.5]nonan-7-yl)-2,6-difluorophenyl)piperidine-2,6-dione], for which, in the experiment on EGFR-Del19/T790M/C797S, the DC50 was found to be 3.8 nM and the “Dmax (%) H1975 # 28 DTC” value is 87%. For the same molecule, on EGFR-L858R/T790M/C797S, the DC50 is 2.7 nM and the Dmax worked out at 92%.

Consider `CCc1cc(Nc2ncc(Br)c(Nc3ccc4nc(C)c(F)cc4c3P(C)(C)=O)n2)c(OC)cc1N1CCC(N2CC3(CN(c4cc(F)c([C@H]5CCC(=O)NC5=O)c(F)c4)C3)C2)CC1` [Example 60, (R)-3-(4-(6-(1-(4-((5-bromo-4-((5-(dimethylphosphoryl)-3-fluoro-2-methylquinolin-6-yl)amino)pyrimidin-2-yl)amino)-2-ethyl-5-methoxyphenyl)piperidin-4-yl)-26-diazaspiro[3.3]heptan-2-yl)-2,6-difluorophenyl)piperidine-2,6-dione], for which, in the experiment with EGFR-Del19/T790M/C797S, the DC50 turned out to be 0.5 nM and the “Dmax (%) H1975 # 28 DTC” value came out at 95%. For the same molecule, at EGFR-L858R/T790M/C797S, the DC50 is 1.1 nM and the Dmax came out at 95%.

For `CCc1cc(Nc2ncc(Cl)c(Nc3ccc4nc(C)c(F)cc4c3P(C)(C)=O)n2)c(OC)cc1N1CC2(C1)CN(C1CCN(c3cc(F)c([C@H]4CCC(=O)NC4=O)c(F)c3)CC1)C2` [Example 61, (R)-3-(4-(4-(6-(4-((5-chloro-4-((5-(dimethylphosphoryl)-3-fluoro-2-methylquinolin-6-yl)amino)pyrimidin-2-yl)amino)-2-ethyl-5-methoxyphenyl)-2,6-diazaspiro[3.3]heptan-2-yl)piperidin-1-yl)-2,6-difluorophenyl)piperidine-2,6-dione], in the experiment on EGFR-Del19/T790M/C797S, the DC50 amounted to 0.9 nM and the “Dmax (%) H1975 # 28 DTC” value turned out to be 94%. At EGFR-L858R/T790M/C797S, the half-maximal degradation concentration (DC50) is 1.2 nM and the Dmax is 94%.

`CCc1cc(Nc2ncc(Br)c(Nc3ccc4nc(C)c(F)cc4c3P(C)(C)=O)n2)c(OC)cc1N1CCC2(CC1)CN(C1CCN(c3cc(F)c([C@H]4CCC(=O)NC4=O)c(F)c3)CC1)C2` [Example 62, (R)-3-(4-(4-(7-(4-((5-bromo-4-((5-(dimethylphosphoryl)-3-fluoro-2-methylquinolin-6-yl)amino)pyrimidin-2-yl)amino)-2-ethyl-5-methoxyphenyl)-2,7-diazaspiro[3.5]nonan-2-yl)piperidin-1-yl)-2,6-difluorophenyl)piperidine-2,6-dione]: in the experiment on EGFR-Del19/T790M/C797S, the DC50 came out at 1.4 nM and the “Dmax (%) H1975 # 28 DTC” value was 89%. At EGFR-L858R/T790M/C797S, the DC50 turned out to be 1.6 nM and the Dmax was determined as 95%.

Take `CCc1ccc2c(P(C)(C)=O)c(Nc3nc(Nc4cc(CC)c(N5CCC(N6CCC(N7CC(c8cccc9c8n(C)c(=O)n9C8CCC(=O)NC8=O)C7)CC6)CC5)cc4OC)ncc3Br)ccc2n1` (stereo not shown) [Example 63, 3-(4-(1-(1′-(4-((5-bromo-4-((5-(dimethylphosphoryl)-2-ethylquinolin-6-yl)amino)pyrimidin-2-yl)amino)-2-ethyl-5-methoxyphenyl)-[1,4′-bipiperidin]-4-yl)azetidin-3-yl)-3-methyl-2-oxo-2,3-dihydro-1H-benzo[d]imidazol-1-yl)piperidine-2,6-dione]: in the experiment on EGFR-Del19/T790M/C797S, the DC50 stood at 4.7 nM and the “Dmax (%) H1975 # 28 DTC” value is reported as 74%. On EGFR-L858R/T790M/C797S, the DC50 was determined as 2.7 nM and the Dmax came out at 77%.

Turning to `CCc1cc(Nc2ncc(Br)c(Nc3ccc4nc(C)c(F)cc4c3P(C)(C)=O)n2)c(OC)cc1N1CC2(C1)CN(C1CCN(c3cc(F)c([C@H]4CCC(=O)NC4=O)c(F)c3)CC1)C2` [Example 64, (R)-3-(4-(4-(6-(4-((5-bromo-4-((5-(dimethylphosphoryl)-3-fluoro-2-methylquinolin-6-yl)amino)pyrimidin-2-yl)amino)-2-ethyl-5-methoxyphenyl)-2,6-diazaspiro[3.3]heptan-2-yl)piperidin-1-yl)-2,6-difluorophenyl)piperidine-2,6-dione], in the experiment on EGFR-Del19/T790M/C797S, the DC50 worked out at 1.1 nM and the “Dmax (%) H1975 # 28 DTC” value is recorded as 94%. For the same molecule, at EGFR-L858R/T790M/C797S, the half-maximal degradation concentration (DC50) stood at 1.5 nM and the Dmax was found to be 95%.

Regarding `COc1cc(N2CCC3(CC2)CCN(C2CCN(c4cc(F)c([C@H]5CCC(=O)NC5=O)c(F)c4)CC2)CC3)c(C)cc1Nc1ncc(Br)c(Nc2ccc3nc(C)ncc3c2P(C)(C)=O)n1` [Example 66, (R)-3-(4-(4-(9-(4-((5-bromo-4-((5-(dimethylphosphoryl)-2-methylquinazolin-6-yl)amino)pyrimidin-2-yl)amino)-5-methoxy-2-methylphenyl)-3,9-diazaspiro[5.5]undecan-3-yl)piperidin-1-yl)-2,6-difluorophenyl)piperidine-2,6-dione], in the experiment on EGFR-Del19/T790M/C797S, the DC50 amounted to 3.5 nM and the “Dmax (%) H1975 # 28 DTC” value was found to be 91%. At EGFR-L858R/T790M/C797S, the DC50 is 6.9 nM and the Dmax was found to be 93%.

`CCc1ccc2c(P(C)(C)=O)c(Nc3nc(Nc4cc(C)c(N5CCC6(CCN(CCc7cccc8c7n(C)c(=O)n8C7CCC(=O)NC7=O)CC6)CC5)cc4OC)ncc3Br)ccc2n1` (stereo not shown) [Example 68, 3-(4-(2-(9-(4-((5-bromo-4-((5-(dimethylphosphoryl)-2-ethylquinolin-6-yl)amino)pyrimidin-2-yl)amino)-5-methoxy-2-methylphenyl)-3,9-diazaspiro[5.5]undecan-3-yl)ethyl)-3-methyl-2-oxo-2,3-dihydro-1H-benzol[d]imidazol-1-yl)piperidine-2,6-dione]: in the experiment with EGFR-Del19/T790M/C797S, the DC50 is 2.2 nM and the “Dmax (%) H1975 # 28 DTC” value was determined as 82%. On EGFR-L858R/T790M/C797S, the 50% degradation concentration (DC50) worked out at 3.1 nM and the Dmax was 81%.

As a reminder, the DC50 is the midpoint of the concentration-degradation curve. Usually Dmax stands for the greatest extent of degradation seen.
